Assay results published in ChEMBL document CHEMBL1156904, “Part II: piperazinyl-glutamate-pyridines as potent orally bioavailable P2Y12 antagonists for inhibition of platelet aggregation” (Bioorg Med Chem Lett, 2010).

Columns and labels:
P2Y purinoceptor 12 = P2Y purinoceptor 12 (Homo sapiens, UniProt Q9H244); assay: Inhibition of human P2Y12 receptor expressed in CHO cells
[1] = Antiplatelet activity in human platelet rich plasma assessed as inhibition of ADP-induced platelet aggregation; format: functional
[2] = Antiplatelet activity in human platelet rich plasma assessed as inhibition of ADP-induced platelet aggregation relative to AZD-6140; format: functional
[3] = Metabolic stability in rat microsomes; format: ADME, Microsome
[4] = Metabolic stability in human microsomes; format: ADME, Microsome

P2Y purinoceptor 12, sequence (Q9H244 whole entry): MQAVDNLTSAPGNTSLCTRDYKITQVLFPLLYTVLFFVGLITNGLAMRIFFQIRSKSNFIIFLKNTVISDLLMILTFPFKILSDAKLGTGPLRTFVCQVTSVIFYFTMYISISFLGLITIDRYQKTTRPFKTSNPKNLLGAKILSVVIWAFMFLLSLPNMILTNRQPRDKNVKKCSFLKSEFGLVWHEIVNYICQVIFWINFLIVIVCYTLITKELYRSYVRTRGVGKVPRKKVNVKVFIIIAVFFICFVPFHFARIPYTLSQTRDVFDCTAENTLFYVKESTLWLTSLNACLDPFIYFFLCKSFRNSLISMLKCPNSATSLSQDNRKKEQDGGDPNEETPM

| Ki (P2Y purinoceptor 12) [nM] | IC50 [1] [nM] | Stability [3] | Stability [4] | SMILES | fold change (FC) [2] |
| --- | --- | --- | --- | --- | --- |
| 29 | 5000 | Stable | Stable | CCCCCOC(=O)N1CCN(C(=O)[C@H](CCC(=O)O)NC(=O)c2cc(N3CCN(CCC)CC3)cc(-c3ccccc3)n2)CC1 | 6.3 |
| 8.9 | 680 | Stable | Stable | CCCCCOC(=O)N1CCN(C(=O)[C@H](CCC(=O)O)NC(=O)c2cc(N3CCN(CCS(C)(=O)=O)CC3)cc(-c3ccccc3)n2)CC1 | 0.81 |
| 9.9 | 2900 | Stable | Stable | CCCCCOC(=O)N1CCN(C(=O)[C@H](CCC(=O)O)NC(=O)c2cc(N3CCCC(CNC(C)=O)C3)cc(-c3ccccc3)n2)CC1 (stereo not given in full) | 3.4 |
| 3.2 | 890 | Stable | Stable | CCCCOC(=O)N1CCN(C(=O)[C@H](CCC(=O)O)NC(=O)c2cc(N3CCC(CN(C)C)CC3)cc(-c3ccccc3)n2)CC1 | 1.3 |
| 5.9 | 2900 | Stable | Stable | CCCCCOC(=O)N1CCN(C(=O)[C@H](CCC(=O)O)NC(=O)c2cc(N3CCN(CC(=O)N(CC)CC)CC3)cc(-c3ccccc3)n2)CC1 | 3.2 |
| 1.5 | 710 | Stable | Stable | CCCCCOC(=O)N1CCN(C(=O)[C@H](CCC(=O)O)NC(=O)c2cc(N3CCC(CNC)CC3)cc(-c3ccccc3)n2)CC1 | 0.99 |
| 0.68 | 1200 | Stable | Stable | CCCCOC(=O)N1CCN(C(=O)[C@H](CCC(=O)O)NC(=O)c2cc(N3CCC(C(=O)NCC)CC3)cc(-c3ccccc3)n2)CC1 | 0.9 |
| 1.5 | 800 | Stable | Stable | CCCCOC(=O)N1CCN(C(=O)[C@H](CCC(=O)O)NC(=O)c2cc(N3CCC(CN4CCCC4)CC3)cc(-c3ccccc3)n2)CC1 | 1 |
| 17 | 7800 | Stable | Stable | CCCCCOC(=O)N1CCN(C(=O)[C@H](CCC(=O)O)NC(=O)c2cc(N3CCCC(C(N)=O)C3)cc(-c3ccccc3)n2)CC1 (stereo not given in full) | 7.3 |
| 11 | 2700 | Stable | Stable | CCCCCOC(=O)N1CCN(C(=O)[C@H](CCC(=O)O)NC(=O)c2cc(N3CCC(CCOC)CC3)cc(-c3ccccc3)n2)CC1 | 3.5 |
| 11 | 3300 | Stable | Stable | CCCCCOC(=O)N1CCN(C(=O)[C@H](CCC(=O)O)NC(=O)c2cc(N3CCCC(N4CCCC4)C3)cc(-c3ccccc3)n2)CC1 (stereo not given in full) | 3.3 |
| 21 | 29000 | Stable | Stable | CCCCCOC(=O)N1CCN(C(=O)C(CCC(=O)O)NC(=O)c2cc(N3CCC(CO)C3)cc(-c3ccccc3)n2)CC1 (mixture of isomers) | 11 |
| 1.1 | 740 | Stable | Stable | CCCCCOC(=O)N1CCN(C(=O)[C@H](CCC(=O)O)NC(=O)c2cc(N3CCC(CN4CCCC4)CC3)cc(-c3ccccc3)n2)CC1 | 0.93 |
| 5.2 | 1600 | Stable | Stable | CCCCCOC(=O)N1CCN(C(=O)[C@H](CCC(=O)O)NC(=O)c2cc(N3CCN(CC(=O)N4CCCC4)CC3)cc(-c3ccccc3)n2)CC1 | 2.2 |
| 24 | 3600 | Stable | Stable | CCCCCOC(=O)N1CCN(C(=O)[C@H](CCC(=O)O)NC(=O)c2cc(N3CC[C@@H](C(=O)N(C)C)C3)cc(-c3ccccc3)n2)CC1 | 3.8 |
| 4.5 | 1100 | Stable | Stable | CCCCCOC(=O)N1CCN(C(=O)[C@H](CCC(=O)O)NC(=O)c2cc(N3CCN(CCN)CC3)cc(-c3ccccc3)n2)CC1 | 1.6 |
| 4.8 | 820 | Stable | Stable | CCCCCCOC(=O)N1CCN(C(=O)[C@H](CCC(=O)O)NC(=O)c2cc(N3CCC(C(=O)N(CC)CC)CC3)cc(-c3ccccc3)n2)CC1 | 1.7 |

Second part, the compound before the results:

| SMILES | Ki (P2Y purinoceptor 12) [nM] | IC50 [1] [nM] | Stability [3] | Stability [4] | fold change (FC) [2] |
| --- | --- | --- | --- | --- | --- |
| CCCCCOC(=O)N1CCN(C(=O)[C@H](CCC(=O)O)NC(=O)c2cc(N3CCC(C(=O)N(C)C)CC3)cc(-c3ccccc3)n2)CC1 | 0.98 | 600 | Stable | Stable | 0.72 |
| CCCCCOC(=O)N1CCN(C(=O)[C@H](CCC(=O)O)NC(=O)c2cc(N3CCN(C(=O)C(C)C)CC3)cc(-c3ccccc3)n2)CC1 | 16 | 5000 | Stable | Stable | 6.6 |
| CCCCCOC(=O)N1CCN(C(=O)[C@H](CCC(=O)O)NC(=O)c2cc(N3CCC(C(=O)NC)CC3)cc(-c3ccccc3)n2)CC1 | 7.9 | 1600 | Stable | Stable | 0.86 |
| CCCOC(=O)N1CCN(C(=O)[C@H](CCC(=O)O)NC(=O)c2cc(N3CCC(C(=O)N(CC)CC)CC3)cc(-c3ccccc3)n2)CC1 | 12 | 2000 | Stable | Stable | 2.3 |
| CCCCCOC(=O)N1CCN(C(=O)[C@H](CCC(=O)O)NC(=O)c2cc(N3CCC(CNC(C)=O)CC3)cc(-c3ccccc3)n2)CC1 | 25 | 6800 | Stable | Stable | 3.9 |
| CCCCOC(=O)N1CCN(C(=O)[C@H](CCC(=O)O)NC(=O)c2cc(N3CCC(CN(CC)CC)CC3)cc(-c3ccccc3)n2)CC1 | 7.5 | 2400 | Stable | Stable | 2.1 |
| CCCCCOC(=O)N1CCN(C(=O)[C@H](CCC(=O)O)NC(=O)c2cc(N3CCN(CCOC)CC3)cc(-c3ccccc3)n2)CC1 | 8.3 | 1100 | Stable | Stable | 2.1 |
| CCCCCOC(=O)N1CCN(C(=O)[C@H](CCC(=O)O)NC(=O)c2cc(N3CCN(CCCN(C)C)CC3)cc(-c3ccccc3)n2)CC1 | 8.4 | 520 | Stable | Stable | 0.72 |
| CCCCCOC(=O)N1CCN(C(=O)[C@H](CCC(=O)O)NC(=O)c2cc(N3CCN(CCO)CC3)cc(-c3ccccc3)n2)CC1 | 13 | 1800 | Stable | Stable | 1.1 |
| CCCCCOC(=O)N1CCN(C(=O)[C@H](CCC(=O)O)NC(=O)c2cc(N3CC(O)C3)cc(-c3ccccc3)n2)CC1 | 2.5 | 8600 | Stable | Stable | 9.2 |
| CCCCCOC(=O)N1CCN(C(=O)[C@H](CCC(=O)O)NC(=O)c2cc(N3CCC(CCN)CC3)cc(-c3ccccc3)n2)CC1 | 2.8 | 860 | Stable | Stable | 0.66 |
| CCCCCOC(=O)N1CCN(C(=O)[C@H](CCC(=O)O)NC(=O)c2cc(N3CCN(C(=O)N4CCCC4)CC3)cc(-c3ccccc3)n2)CC1 | 10 | 6100 | Stable | Stable | 14 |
| CCCCCOC(=O)N1CCN(C(=O)[C@H](CCC(=O)O)NC(=O)c2cc(N3CC[C@H](C(=O)N4CCCC4)C3)cc(-c3ccccc3)n2)CC1 | 1.7 | 2600 | Stable | Stable | 2.8 |
| CCCCCOC(=O)N1CCN(C(=O)[C@H](CCC(=O)O)NC(=O)c2cc(N3CCN(C(=O)N(C)C)CC3)cc(-c3ccccc3)n2)CC1 | 5.9 | 3000 | Stable | Stable | 3.6 |
| CCCCCOC(=O)N1CCN(C(=O)[C@H](CCC(=O)O)NC(=O)c2cc(N3CCN(C(=O)N(CC)CC)CC3)cc(-c3ccccc3)n2)CC1 | 12 | 3200 | Stable | Stable | 4.6 |
| CCCCOC(=O)N1CCN(C(=O)[C@H](CCC(=O)O)NC(=O)c2cc(N3CCC(CN4CCCC4=O)CC3)cc(-c3ccccc3)n2)CC1 | 0.79 | 1100 | Stable | Stable | 1.5 |
| CCCCCOC(=O)N1CCN(C(=O)[C@H](CCC(=O)O)NC(=O)c2cc(N3CCC[C@@H](O)C3)cc(-c3ccccc3)n2)CC1 | 16 | 4400 | Stable | Stable | 4.9 |
| CCCCCOC(=O)N1CCN(C(=O)[C@H](CCC(=O)O)NC(=O)c2cc(N3CCCC(N)C3)cc(-c3ccccc3)n2)CC1 (stereo not given in full) | 5.5 | 1800 | Stable | Stable | 2.2 |
| CCCCCOC(=O)N1CCN(C(=O)[C@H](CCC(=O)O)NC(=O)c2cc(N3CCN(C(N)=O)CC3)cc(-c3ccccc3)n2)CC1 | 6.3 | 1900 | Stable | Stable | 1.8 |
| CCCCCOC(=O)N1CCN(C(=O)[C@H](CCC(=O)O)NC(=O)c2cc(N3CCC(CN(CC)CC)CC3)cc(-c3ccccc3)n2)CC1 | 4 | 2200 | Stable | Stable | 2.7 |
